A short description of one experiment: Inhibition of PAF-induced platelet aggregation.
In turn, `Cc1ncccc1C(C#N)N1CCN(C(=O)[C@H](CO)NC(c2ccccc2)c2ccccc2)CC1` (some centres not stated) [{4-[2-(Benzhydryl-amino)-3-hydroxy-propionyl]-piperazin-1-yl}-(2-methyl-pyridin-3-yl)-acetonitrile] had an IC50 of 34 nM.

In the case of `CCc1ncccc1C(C#N)N1CCN(C(=O)CNC(c2ccccc2)c2ccccc2)CC1` (configuration not stated) [{4-[2-(Benzhydryl-amino)-acetyl]-piperazin-1-yl}-(2-ethyl-pyridin-3-yl)-acetonitrile], the half-inhibitory concentration (IC50) was 38 nM.

Compound `Cc1ncccc1C(C#N)N1CCN(C(=O)CNC(c2ccccc2)c2ccccc2)CC1` (configuration not stated) [{4-[2-(Benzhydryl-amino)-acetyl]-piperazin-1-yl}-(2-methyl-pyridin-3-yl)-acetonitrile] yielded an IC50 of 40 nM.

`Cc1ncccc1C(C#N)N1CCN(C(=O)[C@@H](C)NC(c2ccccc2)c2ccccc2)CC1` (some centres not stated) [{4-[2-(Benzhydryl-amino)-propionyl]-piperazin-1-yl}-(2-methyl-pyridin-3-yl)-acetonitrile] displayed an IC50 of 30 nM. On the same count and under the same terms, as for `Cc1ncccc1C(C#N)N1CCN(C(=O)[C@H](C)NC(c2ccccc2)c2ccccc2)CC1` (some centres not stated) [{4-[2-(Benzhydryl-amino)-propionyl]-piperazin-1-yl}-(2-methyl-pyridin-3-yl)-acetonitrile], the figure is 13 nM. Same read-out and setting: the result for `Cc1ncccc1C(C#N)N1CCN(C(=O)CCNC(c2ccccc2)c2ccccc2)CC1` (configuration not stated) [{4-[3-(Benzhydryl-amino)-propionyl]-piperazin-1-yl}-(2-methyl-pyridin-3-yl)-acetonitrile] reads 120 nM; that for `Cc1ncccc1C(C#N)N1CCN(C(=O)CC(c2ccccc2)N(C)Cc2ccccc2)CC1` (configuration not stated) [{4-[3-(Benzyl-methyl-amino)-3-phenyl-propionyl]-piperazin-1-yl}-(2-methyl-pyridin-3-yl)-acetonitrile], 20 nM.

The next experiment in a line: In vitro inhibition of PAF-induced platelet aggregation in male rabbits.
The compound `Cc1ncccc1C(CO)N1CCN(C(=O)CC(c2ccccc2)c2ccccc2)CC1` (configuration not stated) [1-{4-[2-Hydroxy-1-(2-methyl-pyridin-3-yl)-ethyl]-piperazin-1-yl}-3,3-diphenyl-propan-1-one] registered an IC50 of 4000 nM. Same read-out and setting: as for `CO/N=C(/C)C(c1cccnc1C)N1CCN(C(=O)CC(c2ccccc2)c2ccccc2)CC1` (configuration not stated) [1-{4-[2-Methoxyimino-1-(2-methyl-pyridin-3-yl)-propyl]-piperazin-1-yl}-3,3-diphenyl-propan-1-one], the figure is 7800 nM. The same measure, in the same setting: as for `Cc1ncccc1C(C#N)N1CCN(C(=O)CC(NC(=O)c2ncccc2O)c2ccccc2)CC1` (configuration not stated) [3-Hydroxy-pyridine-2-carboxylic acid (3-{4-[cyano-(2-methyl-pyridin-3-yl)-methyl]-piperazin-1-yl}-3-oxo-1-phenyl-propyl)-amide], the figure is 130 nM. `CCOC(=O)C(CC(=O)N1CCN(C(C#N)c2cccnc2C)CC1)(c1ccccc1)c1ccccc1` (configuration not stated) [4-{4-[Cyano-(2-methyl-pyridin-3-yl)-methyl]-piperazin-1-yl}-4-oxo-2,2-diphenyl-butyric acid ethyl ester]: the IC50 is 46 nM. Still for that read-out and setting: as for `Cc1ncccc1C(C#N)N1CCN(C(=O)CC(c2ccccc2)n2cccc2)CC1` (configuration not stated) [(2-Methyl-pyridin-3-yl)-[4-(3-phenyl-3-pyrrol-1-yl-propionyl)-piperazin-1-yl]-acetonitrile], the figure is 350 nM; as for `Cc1ncccc1C(C#N)N1CCN(C(=O)CC(c2ccccc2)N2CCCC2)CC1` (configuration not stated) [(2-Methyl-pyridin-3-yl)-[4-(3-phenyl-3-pyrrolidin-1-yl-propionyl)-piperazin-1-yl]-acetonitrile], 18 nM; as for `Cc1ncccc1C(C#N)N1CCN(C(=O)CC(C)c2ccccc2)CC1` (configuration not stated) [(2-Methyl-pyridin-3-yl)-[4-(3-phenyl-butyryl)-piperazin-1-yl]-acetonitrile], 32 nM.

`Cc1ncccc1C(C#N)N1CCN(C(=O)CC(O)(c2ccccc2)C(F)(F)F)CC1` (configuration not stated) [(2-Methyl-pyridin-3-yl)-[4-(4,4,4-trifluoro-3-hydroxy-3-phenyl-butyryl)-piperazin-1-yl]-acetonitrile] showed an IC50 of 14 nM. Same read-out and setting: as for `Cc1ncccc1C(C#N)N1CCN(C(=O)/C=C(/c2ccccc2)C(F)(F)F)CC1` (configuration not stated) [(2-Methyl-pyridin-3-yl)-[4-(4,4,4-trifluoro-3-phenyl-but-2-enoyl)-piperazin-1-yl]-acetonitrile], the figure is 120 nM; as for `Cc1ncccc1C(C#N)N1CCN(C(=O)/C=C(\c2ccccc2)C(F)(F)F)CC1` (configuration not stated) [(2-Methyl-pyridin-3-yl)-[4-(4,4,4-trifluoro-3-phenyl-but-2-enoyl)-piperazin-1-yl]-acetonitrile], 55 nM; as for `Cc1ncccc1C(C#N)N1CCN(C(=O)CC(c2ccccc2)C(F)(F)F)CC1` (configuration not stated) [(2-Methyl-pyridin-3-yl)-[4-(4,4,4-trifluoro-3-phenyl-butyryl)-piperazin-1-yl]-acetonitrile], 12 nM.

`Cc1ncccc1C(C#N)N1CCN(C(=O)CC(NC(=O)c2ccoc2)c2ccccc2)CC1` (configuration not stated) [Furan-3-carboxylic acid (3-{4-[cyano-(2-methyl-pyridin-3-yl)-methyl]-piperazin-1-yl}-3-oxo-1-phenyl-propyl)-amide] showed an IC50 of 2600 nM.

`Cc1ncccc1C(C#N)N1CCN(C(=O)CC(NC(=O)c2ccc[nH]c2=O)c2ccccc2)CC1` (configuration not stated) [N-(3-{4-[Cyano-(2-methyl-pyridin-3-yl)-methyl]-piperazin-1-yl}-3-oxo-1-phenyl-propyl)-2-hydroxy-nicotinamide] displayed a half-inhibitory concentration (IC50) of 29 nM. The same measure, in the same setting: as for `Cc1ncccc1C(C#N)N1CCN(C(=O)CC(NS(=O)(=O)c2ccccc2)c2ccccc2)CC1` (configuration not stated) [N-(3-{4-[Cyano-(2-methyl-pyridin-3-yl)-methyl]-piperazin-1-yl}-3-oxo-1-phenyl-propyl)-benzenesulfonamide], the figure is 18 nM.

`Cc1ncccc1C(C#N)N1CCN(C(=O)CC(NS(C)(=O)=O)c2ccccc2)CC1` (configuration not stated) [N-(3-{4-[Cyano-(2-methyl-pyridin-3-yl)-methyl]-piperazin-1-yl}-3-oxo-1-phenyl-propyl)-methanesulfonamide]: the 50% inhibitory concentration (IC50) was 21 nM. The compound `Cc1ncccc1C(C#N)N1CCN(C(=O)CN(C(c2ccccc2)c2ccccc2)S(C)(=O)=O)CC1` (configuration not stated) [N-Benzhydryl-N-(2-{4-[cyano-(2-methyl-pyridin-3-yl)-methyl]-piperazin-1-yl}-2-oxo-ethyl)-methanesulfonamide] displayed an IC50 of 82 nM. On the same count and under the same terms, as for `Cc1ncccc1C(C#N)N1CCN(C(=O)CC(NC(=O)c2cnccn2)c2ccccc2)CC1` (configuration not stated) [Pyrazine-2-carboxylic acid (3-{4-[cyano-(2-methyl-pyridin-3-yl)-methyl]-piperazin-1-yl}-3-oxo-1-phenyl-propyl)-amide], the figure is 820 nM; as for `Cc1ncccc1C(C#N)N1CCN(C(=O)CON=C(c2ccccc2)c2ccccc2)CC1` (configuration not stated) [[4-(2-Benzhydrylideneaminooxy-acetyl)-piperazin-1-yl]-(2-methyl-pyridin-3-yl)-acetonitrile], 87 nM.

For the compound `CCOC(=O)C(c1cccnc1C)N1CCN(C(=O)CC(c2ccccc2)c2ccccc2)CC1` (configuration not stated) [[4-(3,3-Diphenyl-propionyl)-piperazin-1-yl]-(2-methyl-pyridin-3-yl)-acetic acid ethyl ester], it took 15500 nM to reach half-maximal inhibition (IC50).

For the compound `Cc1ncccc1C(C#N)N1CCN(C(=O)CC(O)(c2ccccc2)c2cccnc2)CC1` (configuration not stated) [[4-(3-Hydroxy-3-phenyl-3-pyridin-3-yl-propionyl)-piperazin-1-yl]-(2-methyl-pyridin-3-yl)-acetonitrile], the IC50 came to 32 nM. Still for that read-out and setting: the result for `Cc1ncccc1C(C#N)N1CCN(C(=O)CC(C)(O)c2ccccc2)CC1` (configuration not stated) [[4-(3-Hydroxy-3-phenyl-butyryl)-piperazin-1-yl]-(2-methyl-pyridin-3-yl)-acetonitrile] reads 36 nM; that for `Cc1ncccc1C(C#N)N1CCN(C(=O)C[S+]([O-])C(c2ccccc2)c2ccccc2)CC1` (configuration not stated) [{4-[2-(Diphenyl-methanesulfinyl)-acetyl]-piperazin-1-yl}-(2-methyl-pyridin-3-yl)-acetonitrile], 44 nM.

Turning to `Cc1ncccc1C(C#N)N1CCN(C(=O)CS(=O)(=O)C(c2ccccc2)c2ccccc2)CC1` (configuration not stated) [{4-[2-(Diphenyl-methanesulfonyl)-acetyl]-piperazin-1-yl}-(2-methyl-pyridin-3-yl)-acetonitrile], half-maximal inhibition (IC50) was put at 26 nM.

Consider `Cc1ncccc1C(C#N)N1CCN(C(=O)CC(O)(c2ccc(F)cc2)c2ccc(F)cc2)CC1` (configuration not stated) [{4-[3,3-Bis-(4-fluoro-phenyl)-3-hydroxy-propionyl]-piperazin-1-yl}-(2-methyl-pyridin-3-yl)-acetonitrile], for which 75 nM corresponded to half-maximal inhibition (IC50). The same measure, in the same setting: as for `Cc1ncccc1C(C#N)N1CCN(C(=O)CC(c2ccccc2)N2CCCS2(=O)=O)CC1` (configuration not stated) [{4-[3-(1,1-Dioxo-1lambda*6*-isothiazolidin-2-yl)-3-phenyl-propionyl]-piperazin-1-yl}-(2-methyl-pyridin-3-yl)-acetonitrile], the figure is 170 nM.
